How the values were obtained:
Experiment in all cases: Cancer cell growth inhibition, 72 h treatment
Assay type in all cases: cell-based
[1] = test system: SW480; conditions: Homo sapiens
Description: (§1) Cell culture-based assays were used to evaluate the ability of compounds of the invention to inhibit cancer cell growth.
(§2) Cells were obtained from the American Type Culture Collection (ATCC) and the European Collection of Cell Cultures. Cells were thawed in their appropriate media plus supplements (see table below). Cells were passaged at confluence by washing once in HBSS cation-free followed by a 3 minutes incubation with trypsin ([0.5 µg/ml]/EDTA [0.2 µg/ml]) (Gibco-BRL, 15400054) solution in HBSS at 37°C (except non-adherent cell lines - hematologic), and transferred to their appropriate media plus supplements. Prior to seeding at defined cell concentration, cells were recovered in medium, centrifuged, taken up in medium and counted.
(§3) All treatments were performed in triplicate. Experiments were carried out in 96-well cell culture plates (Cultek) and the cell lines seeded at the density mentioned in the table above and cultured at 37°C with 5% CO2. After 24h, media were supplemented by 100 µl/well of diluted test compound at variable final concentrations and incubated for 72 hours. Then, AlamarBlue® Reagent (Biosource DAL1100) was added to each well and incubated at 37°C for 4 hours. Relative fluorescent intensity that correlates with the number of living cells was read in a Cytofluor plate reader (Millipore) at 535/590 nm (Excitation/emission). After reading the AlamarBlue® signal, the hexosaminidase activitity was measured according to the following protocol: medium was removed and cells were washed once with PBS. 60 µl of substrate solution (p-nitrophenol-N-acetyl-beta-D-glucosaminide 7.5 mM [Sigma N-9376], sodium citrate 0.1 M, pH 5.0, 0.25% Triton X-1 00) was added to each well and incubated at 37°C for 1-2 hours; after this incubation time, a bright yellow colour appears; then, plates could be developed by adding 90 µl of developer solution (Glycine 50 mM, pH 10.4; EDTA 5 mM), and absorbance was recorded at 405 nm.
(§4) Note: In all cases assays were performed in Alamar Blue with the exception of those indicated (* = Hexosaminidase assay)

[2] = test system: SK-OV-3; conditions: Homo sapiens, Ovarian cancer SK-OV-3, Alamar Blue
Description: as §1, §2, §3, §4

[3] = test system: MCF-7; conditions: Homo sapiens, MCF7, Breast cancer MCF-7, Alamar Blue
Description: as §1, §2, §3, §4

[4] = test system: HepG2; conditions: Homo sapiens, Liver cancer HepG2, Alamar Blue
Description: as §1, §2, §3, §4

[5] = test system: A549; conditions: Homo sapiens
Description: as §1, §2, §3, §4

[6] = test system: SK-Mel-28; conditions: Homo sapiens, Melanoma SK-Mel-28, Alamar Blue
Description: as §1, §2, §3, §4

[7] = test system: HCT-116; conditions: Homo sapiens, Colon cancer HCT-116, Alamar Blue
Description: as §1, §2, §3, §4

[8] = test system: MDA-MB-231; conditions: Homo sapiens, Breast cancer MDA-MB-231, Alamar Blue
Description: as §1, §2, §3, §4

[9] = test system: Jurkat; conditions: Homo sapiens, Hematologic Jurkat, Alamar Blue
Description: as §1, §2, §3, §4

[10] = test system: CCRF-CEM; conditions: Homo sapiens, Hematologic CCRF-CEM, Alamar Blue
Description: as §1, §2, §3, §4

[11] = test system: LNCaP; conditions: Homo sapiens, Prostate cancer LNCaP, Alamar Blue
Description: as §1, §2, §3, §4

[12] = test system: Daoy; conditions: Homo sapiens, Brain Daoy, Alamar Blue
Description: as §1, §2, §3, §4

[13] = test system: LS174T; conditions: Homo sapiens, Colon cancer LS174T, Alamar Blue
Description: as §1, §2, §3, §4

[14] = test system: COLO 205; conditions: Homo sapiens, Colon cancer COLO 205, Alamar Blue
Description: as §1, §2, §3, §4

[15] = test system: HeLa; conditions: Homo sapiens, Cervical HeLa, Alamar Blue
Description: as §1, §2, §3, §4

[16] = test system: SK-HEP-1; conditions: Homo sapiens, SK-HEP1, Liver cancer SK-HEP-1, Alamar Blue
Description: as §1, §2, §3, §4

[17] = test system: RAMOS; conditions: Homo sapiens, Hematologic RAMOS, Alamar Blue
Description: as §1, §2, §3, §4

[18] = test system: MDA-MB-435; conditions: Homo sapiens, Melanoma MDA-MB-435, Alamar Blue
Description: as §1, §2, §3, §4

[19] = test system: MDA-MB-468; conditions: Homo sapiens, Breast cancer MDA-MB-468, Alamar Blue
Description: as §1, §2, §3, §4

[20] = test system: NCI-H358; conditions: Homo sapiens, Lung cancer NCI-H358, Alamar Blue
Description: as §1, §2, §3, §4

[21] = test system: U-373 MG; conditions: Homo sapiens, U373 MG, Brain U-373 MG
Description: as §1, §2, §3, §4

[22] = test system: LoVo; conditions: Homo sapiens, Colon cancer LoVo, Alamar Blue
Description: as §1, §2, §3, §4

[23] = test system: HT-29; conditions: Homo sapiens, Colon cancer HT-29, Alamar Blue
Description: as §1, §2, §3, §4

[24] = test system: BxPC-3; conditions: Homo sapiens
Description: as §1, §2, §3, §4

[25] = test system: SK-BR-3; conditions: Homo sapiens
Description: as §1, §2, §3, §4

[26] = test system: NCI-H1975; conditions: Homo sapiens
Description: as §1, §2, §3, §4

[27] = test system: RPMI-8226; conditions: Homo sapiens, Multiple mieloma RPMI-8226, Alamar Blue
Description: as §1, §2, §3, §4

[28] = test system: PC-3; conditions: Homo sapiens, Prostate cancer PC-3, Alamar Blue
Description: as §1, §2, §3, §4

[29] = test system: T47D; conditions: Homo sapiens, Breast cancer T47D
Description: as §1, §2, §3, §4

[30] = test system: U-87 MG; conditions: Homo sapiens, Brain U-87 MG, Hexosaminidase assay (*)
Description: as §1, §2, §3, §4

[31] = test system: OVCAR-3; conditions: Homo sapiens
Description: as §1, §2, §3, §4

| EC50 [2] [nM] | EC50 [3] [nM] | EC50 [4] [nM] | EC50 [6] [nM] | EC50 [7] [nM] | EC50 [8] [nM] | EC50 [9] [nM] | EC50 [10] [nM] | EC50 [11] [nM] | EC50 [12] [nM] | EC50 [13] [nM] | EC50 [14] [nM] | EC50 [15] [nM] | EC50 [16] [nM] | EC50 [17] [nM] | EC50 [18] [nM] | EC50 [19] [nM] | EC50 [20] [nM] | EC50 [22] [nM] | EC50 [23] [nM] | Compound | further results |
| --- | --- | --- | --- | --- | --- | --- | --- | --- | --- | --- | --- | --- | --- | --- | --- | --- | --- | --- | --- | --- | --- |
| 2200 | 23000 | 380 | 780 | 1300 | 2100 | 1700 | 330 | 110 | 1300 | 550 | 3800 | 8300 | 290 | 1000 | 370 | 790 | 2400 | 3090 | 1500 | CC(C)C[C@H](NC(=O)[C@H]1N[C@@H](c2ccccc2)[C@@H]([N+](=O)[O-])[C@@H]1c1ccccc1)B(O)O [Example 4, (R)-3-methyl-1-((2S,3R,4S,5S)-4-nitro-3,5-diphenylpyrrolidine-2-carboxamido)butylboronic acid] | EC50 ([1]; Colon cancer SW480, Alamar Blue): 610 nM; EC50 ([5]; Lung cancer A549, Alamar Blue): 4000 nM; EC50 ([21]; Alamar Blue): 7300 nM; EC50 ([24]; Pancreatic cancer BxPC-3, Alamar Blue): 2900 nM; EC50 ([25]; Breast cancer SK-BR-3, Alamar Blue): 760 nM; EC50 ([26]; Lung cancer NCI-H1975, Alamar Blue): 41000 nM; EC50 [27]: 270 nM; EC50 [28]: 2300 nM; EC50 ([29]; Alamar Blue): 2100 nM; EC50 [30]: 4200 nM; EC50 ([31]; Ovarian cancer OVCAR-3, Alamar Blue): 890 nM |
| 13000 | 1900 | 3100 | 13000 | 2200 | 11000 | 2000 | 630 | 1800 | 3700 | 600 | 2400 | 54000 | 1900 | 2400 | 1100 | 2200 | 3300 | 15000 | 27000 | CC(C)C[C@H](NC(=O)[C@@H]1N[C@H](c2ccccc2)[C@@H]([N+](=O)[O-])[C@@H]1c1ccc(F)cc1)B(O)O [Example 6, (R)-1-((2R,3R,4S,5R)-3-(4-fluorophenyl)-4-nitro-5-phenylpyrrolidine-2-carboxamido)-3-methylbutylboronic acid] | EC50 ([1]; Colon cancer SW480, Hexosaminidase assay (*)): 13000 nM; EC50 ([5]; Lung cancer A549, Hexosaminidase assay (*)): 12000 nM; EC50 ([21]; Hexosaminidase assay (*)): 17000 nM; EC50 ([24]; Pancreatic cancer BxPC-3, Hexosaminidase assay (*)): 5800 nM; EC50 ([25]; Breast cancer SK-BR-3, Hexosaminidase assay (*)): 6000 nM; EC50 ([26]; Lung cancer NCI-H1975, Hexosaminidase assay (*)): 7300 nM; EC50 [27]: 1300 nM; EC50 [28]: 7100 nM; EC50 ([29]; Hexosaminidase assay (*)): 21000 nM; EC50 [30]: 12000 nM; EC50 ([31]; Ovarian cancer OVCAR-3, Hexosaminidase assay (*)): 2200 nM |

Reference: patent publication EP2910557A1, “Enantiopure tetrasubstituted pyrrolidines as scaffolds for proteasome inhibitors and medicinal applications thereof” (Ikerchem, S.L., priority 2014, dated 2015)
